We go through 2 compounds from ChEMBL document CHEMBL1151553, “Two novel amino acid derivatives containing side-chain thioamides for the synthesis of photoactivatable peptides” (Bioorg Med Chem Lett, 1997).

The target of this assay is T1, Substance-K receptor (Homo sapiens, UniProt P21452).
T1 sequence (P21452 whole entry): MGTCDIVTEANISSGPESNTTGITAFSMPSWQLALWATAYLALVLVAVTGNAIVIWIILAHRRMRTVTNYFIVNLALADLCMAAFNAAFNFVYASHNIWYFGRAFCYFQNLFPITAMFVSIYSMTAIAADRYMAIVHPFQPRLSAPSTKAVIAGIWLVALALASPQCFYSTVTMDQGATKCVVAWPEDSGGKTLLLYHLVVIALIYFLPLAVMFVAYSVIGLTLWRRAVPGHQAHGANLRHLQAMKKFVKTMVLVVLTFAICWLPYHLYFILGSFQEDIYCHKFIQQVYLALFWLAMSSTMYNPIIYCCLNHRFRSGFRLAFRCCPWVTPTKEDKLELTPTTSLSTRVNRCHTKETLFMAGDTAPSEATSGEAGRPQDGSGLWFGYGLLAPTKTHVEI
The assay is described as follows: Tested for the binding affinity to human NK2 receptor expressed in Sf-9 insect larval cells using 0.1 nM 2-[125 I] iodohistidyl neurokinin A. Type of assay: functional.

Numbered stars: 1 amine (or outer) side, 2 acyl side, 3 side chain; on linkers, the order of the positions; unused ones are H or OH. Square brackets hold non-standard residues; d marks the D form. Peptide text beside a SMILES is read from it. X2 = O=C([C@@H](Cc1ccc(NC(=S)Cc2ccccc2)cc1)N[*:1])[*:2]; X1 = O=C([C@@H](Cc1ccc(NC(=S)c2ccccc2)cc1)N[*:1])[*:2]; hCys = N[C@@H](CCS)C(=O)O

Usually IC50 stands for the point on the concentration scale where inhibition reaches its midpoint. Higher therefore signals lower potency. Turning to `CC(C)C[C@H](NC(=O)CNC(=O)[C@@H](NC(=O)[C@H](Cc1ccccc1)NC(=O)[C@H](CO)NC(=O)[C@H](CC(=O)O)NC(=O)[C@@H](NC(=O)[C@H](CCCCN)NC(=O)[C@@H](Cc1ccc(NC(=S)Cc2ccccc2)cc1)NC(=O)[C@@H](N)Cc1ccc(O)cc1)[C@@H](C)O)C(C)C)C(=O)N[C@@H](CCS)C(N)=O` (H-Y[X2]KTDSFVGL[hCys]-NH2), the IC50 was 53.4 nM. This counts as double-digit nanomolar.

`CC(C)C[C@H](NC(=O)CNC(=O)[C@@H](NC(=O)[C@H](Cc1ccccc1)NC(=O)[C@H](CO)NC(=O)[C@H](CC(=O)O)NC(=O)[C@@H](NC(=O)[C@H](CCCCN)NC(=O)[C@@H](Cc1ccc(NC(=S)c2ccccc2)cc1)NC(=O)[C@@H](N)Cc1c[nH]cn1)[C@@H](C)O)C(C)C)C(=O)N[C@@H](CCS)C(N)=O` (H-H[X1]KTDSFVGL[hCys]-NH2): the concentration for half-maximal inhibition (IC50) turned out to be 7.72 nM. This IC50 is about 6.9-fold lower than that of the compound before.
